Reference: patent US20100273876A1, “ANTIBACTERIAL FORMULATION COMPRISING A DIALKYL SULPHOSUCCINATE AND A CARBANILIDE ANTIBACTERIAL AGENT” (priority 2007, published 2010)

Legend:
P. acnes NCTC 737 [1] = experiment: Minimum bactericidal concentration (MBC) assay; assay type: cell-based, Propionibacterium acnes
Procedure: The propionibacteria were cultured and maintained on Wilkins-Chalgren Anaerobe Medium (agar and broth) at pH 6.0; all cultures were incubated anaerobically at 37° C. for 72 hours. This assay, normally carried out after an MIC assay, determines the rnininiurn concentration of a compound that is lethal to the micro-organism being tested. […] These samples were then individually sub-cultured on antibiotic-free agar medium, under the incubation conditions described above. Following incubation they were examined visually for microbial growth.

P. acnes PRP-059 = experiment: (S)DDA disc diffusion; assay type: cell-based, Propionibacterium acnes
Procedure: (§1) The propionibacteria were cultured and maintained on Wilkins-Chalgren Anaerobe Medium (agar and broth) at pH 6.0; all cultures were incubated anaerobically at 37° C. for 72 hours.
(§2) A sterile paper disc was impregnated with a sample of the test compound in a suitable solvent and 30 minutes allowed for the solvents to evaporate (where possible). The disc was then placed on an agar plate onto which the test micro-organism had been inoculated. The plate was then incubated under the conditions described above, following which it was examined visually for signs of microbial growth. If the test compound had antimicrobial activity, a circular zone of no growth would be obtained around the disc. The diameter of this zone of “inhibition” was measured using a ProtoCOL™ automated zone sizer (Synbiosis, Cambridge, UK). In general, a greater diameter and/or area of the zone of inhibition indicates a greater antimicrobial activity in the relevant test compound, although other factors such as test compound mobility through the agar gel may also influence the result.
(§3) Two test a compounds A and B were placed on a single paper disc and the above described DDA procedure repeated. An increase in diameter of the zone of inhibition, compared to the greater of the zone diameters for the two compounds individually, was taken to indicate potential antimicrobial synergy. In practical terms, an increase of greater than 5 mm could be treated as significant.
(§4) Both the DDA and the SDDA test may be carried out using an agar gel supplemented with lipid and/or salt to simulate some of the major components present in human skin and to assess whether these substances might reduce the antimicrobial activity observed for the test compound. Performance under these conditions can provide a more reliable indication of activity on topical application. The supplements used in Examples 1, 11, 12 and 13 below were lipid (either Tween™ 80 at 1% v/v (Example 1) or triolein at 1% v/v (Examples 11, 12 and 13) and sodium chloride (100 mM).

P. acnes PRP-053 = experiment: (S)DDA disc diffusion; assay type: cell-based, Propionibacterium acnes
Procedure: as §1, §2, §3, §4

P. acnes PRP-008 = experiment: (S)DDA disc diffusion; assay type: cell-based, Propionibacterium acnes
Procedure: as §1, §2, §3, §4

P. acnes PRP-068 = experiment: (S)DDA disc diffusion; assay type: cell-based, Propionibacterium acnes
Procedure: as §1, §2, §3, §4

P. acnes PRP-003 = experiment: (S)DDA disc diffusion; assay type: cell-based, Propionibacterium acnes
Procedure: as §1, §2, §3, §4

P. acnes PRP-102 = experiment: (S)DDA disc diffusion; assay type: cell-based, Propionibacterium acnes
Procedure: as §1, §2, §3, §4

P. acnes PRP-002 = experiment: (S)DDA disc diffusion; assay type: cell-based, Propionibacterium acnes
Procedure: as §1, §2, §3, §4

P. acnes PRP-010 = experiment: (S)DDA disc diffusion; assay type: cell-based, Propionibacterium acnes
Procedure: as §1, §2, §3, §4

P. acnes PRP-023 = experiment: (S)DDA disc diffusion; assay type: cell-based, Propionibacterium acnes
Procedure: as §1, §2, §3, §4

P. granulosum PRP-021 = experiment: (S)DDA disc diffusion; assay type: cell-based, Propionibacterium granulosum
Procedure: as §1, §2, §3, §4

P. granulosum PRP-005 = experiment: (S)DDA disc diffusion; assay type: cell-based, Propionibacterium granulosum
Procedure: as §1, §2, §3, §4

P. granulosum PRP-043 = experiment: (S)DDA disc diffusion; assay type: cell-based, Propionibacterium granulosum
Procedure: as §1, §2, §3, §4

P. granulosum PRP-055 = experiment: (S)DDA disc diffusion; assay type: cell-based, Propionibacterium granulosum
Procedure: as §1, §2, §3, §4

P. acnes NCTC 737 [2] = experiment: Disc diffusion / synergy disc diffusion assay ((S)DDA); assay type: cell-based, Propionibacterium acnes; conditions: for (S)DDA: diluted 1:2 with placebo, 10 μl per disc
Procedure: as §1, §2, §3, §4

## dioctyl sodium sulphosuccinate [DOSS]
P. acnes NCTC 737 [1]
  MBC: 62.5 µg/mL
  MIC/MBC ratio: 0.25
P. acnes PRP-059; P. acnes PRP-059 (MLS), 200 μg TCC or 50 μg DOSS per disc
  DDA: 11.82 mm
P. acnes PRP-059; P. acnes PRP-059, 200 μg per disc
  DDA: 43.58 mm
P. acnes PRP-059; P. acnes PRP-059, 200 μg per disc, sodium chloride 100 mM
  DDA + salt: 44.20 mm
P. acnes PRP-059; P. acnes PRP-059, 200 μg per disc, triolein 1% v/v
  DDA + lipid: 44.82 mm
P. acnes PRP-053; P. acnes PRP-053 (Tet/MLS), 200 μg TCC or 50 μg DOSS per disc
  DDA: 17.78 mm
P. acnes PRP-053; P. acnes PRP-053, 200 μg per disc
  DDA: 49.49 mm
P. acnes PRP-053; P. acnes PRP-053, 200 μg per disc, sodium chloride 100 mM
  DDA + salt: 44.82 mm
P. acnes PRP-053; P. acnes PRP-053, 200 μg per disc, triolein 1% v/v
  DDA + lipid: 42.02 mm
P. acnes PRP-008; P. acnes PRP-008 (Clin), 200 μg TCC or 50 μg DOSS per disc
  DDA: 24.87 mm
P. acnes PRP-008; P. acnes PRP-008, 200 μg per disc
  DDA: 48.25 mm
P. acnes PRP-008; P. acnes PRP-008, 200 μg per disc, sodium chloride 100 mM
  DDA + salt: 48.56 mm
P. acnes PRP-008; P. acnes PRP-008, 200 μg per disc, triolein 1% v/v
  DDA + lipid: 43.58 mm
P. acnes PRP-068; P. acnes PRP-068 (Ery), 200 μg TCC or 50 μg DOSS per disc
  DDA: 25.59 mm
P. acnes PRP-068; P. acnes PRP-068, 200 μg per disc
  DDA: 48.87 mm
P. acnes PRP-068; P. acnes PRP-068, 200 μg per disc, sodium chloride 100 mM
  DDA + salt: 46.69 mm
P. acnes PRP-068; P. acnes PRP-068, 200 μg per disc, triolein 1% v/v
  DDA + lipid: 44.51 mm
P. acnes PRP-003; P. acnes PRP-003 (Tet), 200 μg TCC or 50 μg DOSS per disc
  DDA: 27.95 mm
P. acnes PRP-003; P. acnes PRP-003, 200 μg per disc
  DDA: 42.96 mm
P. acnes PRP-003; P. acnes PRP-003, 200 μg per disc, sodium chloride 100 mM
  DDA + salt: 46.69 mm
P. acnes PRP-003; P. acnes PRP-003, 200 μg per disc, triolein 1% v/v
  DDA + lipid: 43.58 mm
P. acnes PRP-102; P. acnes PRP-102 (Tet/MLS), 200 μg TCC or 50 μg DOSS per disc
  DDA: 22.81 mm
P. acnes PRP-102; P. acnes PRP-102, 200 μg per disc
  DDA: 44.82 mm
P. acnes PRP-102; P. acnes PRP-102, 200 μg per disc, sodium chloride 100 mM
  DDA + salt: 41.71 mm
P. acnes PRP-102; P. acnes PRP-102, 200 μg per disc, triolein 1% v/v
  DDA + lipid: 37.98 mm
P. acnes PRP-002; P. acnes PRP-002 (Tet/MLS), 200 μg TCC or 50 μg DOSS per disc
  DDA: 31.76 mm
P. acnes PRP-002; P. acnes PRP-002, 200 μg per disc
  DDA: 49.49 mm
P. acnes PRP-002; P. acnes PRP-002, 200 μg per disc, sodium chloride 100 mM
  DDA + salt: 51.36 mm
P. acnes PRP-002; P. acnes PRP-002, 200 μg per disc, triolein 1% v/v
  DDA + lipid: 48.25 mm
P. acnes PRP-010; P. acnes PRP-010 (MLSK), 200 μg TCC or 50 μg DOSS per disc
  DDA: 26.82 mm
P. acnes PRP-010; P. acnes PRP-010, 200 μg per disc
  DDA: 46.69 mm
P. acnes PRP-010; P. acnes PRP-010, 200 μg per disc, sodium chloride 100 mM
  DDA + salt: 46.07 mm
P. acnes PRP-010; P. acnes PRP-010, 200 μg per disc, triolein 1% v/v
  DDA + lipid: 39.84 mm
P. acnes PRP-023; P. acnes PRP-023 (MLSK), 200 μg TCC or 50 μg DOSS per disc
  DDA: 26.41 mm
P. acnes PRP-023; P. acnes PRP-023, 200 μg per disc
  DDA: 49.49 mm
P. acnes PRP-023; P. acnes PRP-023, 200 μg per disc, sodium chloride 100 mM
  DDA + salt: 47.32 mm
P. acnes PRP-023; P. acnes PRP-023, 200 μg per disc, triolein 1% v/v
  DDA + lipid: 46.38 mm
P. granulosum PRP-021; P. granulosum PRP-021 (MLS), 200 μg TCC or 50 μg DOSS per disc
  DDA: 0.00 mm
P. granulosum PRP-021; P. granulosum PRP-021, 200 μg per disc
  DDA: 39.53 mm
P. granulosum PRP-021; P. granulosum PRP-021, 200 μg per disc, sodium chloride 100 mM
  DDA + salt: 38.60 mm
P. granulosum PRP-021; P. granulosum PRP-021, 200 μg per disc, triolein 1% v/v
  DDA + lipid: 42.02 mm
P. granulosum PRP-005; P. granulosum PRP-005 (MLSK), 200 μg TCC or 50 μg DOSS per disc
  DDA: 26.31 mm
P. granulosum PRP-005; P. granulosum PRP-005, 200 μg per disc
  DDA: 42.96 mm
P. granulosum PRP-005; P. granulosum PRP-005, 200 μg per disc, sodium chloride 100 mM
  DDA + salt: 46.38 mm
P. granulosum PRP-005; P. granulosum PRP-005, 200 μg per disc, triolein 1% v/v
  DDA + lipid: 40.47 mm
P. granulosum PRP-043; P. granulosum PRP-043 (MLS), 200 μg TCC or 50 μg DOSS per disc
  DDA: 8.94 mm
P. granulosum PRP-043; P. granulosum PRP-043, 200 μg per disc
  DDA: 40.16 mm
P. granulosum PRP-043; P. granulosum PRP-043, 200 μg per disc, sodium chloride 100 mM
  DDA + salt: 35.80 mm
P. granulosum PRP-043; P. granulosum PRP-043, 200 μg per disc, triolein 1% v/v
  DDA + lipid: 35.18 mm
P. granulosum PRP-055; P. granulosum PRP-055 (resistance None), 200 μg TCC or 50 μg DOSS per disc
  DDA: 10.07 mm
P. granulosum PRP-055; P. granulosum PRP-055, 200 μg per disc
  DDA: 40.16 mm
P. granulosum PRP-055; P. granulosum PRP-055, 200 μg per disc, sodium chloride 100 mM
  DDA + salt: 38.29 mm
P. granulosum PRP-055; P. granulosum PRP-055, 200 μg per disc, triolein 1% v/v
  DDA + lipid: 36.42 mm
P. acnes NCTC 737 [2]; 200 μg per disc, pH 6.0, single replicates
  DDA: 47.63 mm
P. acnes NCTC 737 [2]; 200 μg per disc, pH 6.0, sodium chloride 100 mM
  DDA + salt: 45.14 mm
P. acnes NCTC 737 [2]; 200 μg per disc, pH 6.0, triolein 1% v/v
  DDA + lipid: 47.32 mm
P. acnes NCTC 737 [2]; 2.5% w/w DOSS solution (Solutol HS 15/ethanol/water)
  (S)DDA: 0.00 mm
P. acnes NCTC 737 [2]; 5% w/w DOSS solution
  (S)DDA: 31.88 mm
P. acnes NCTC 737 [2]; 7.5% w/w DOSS solution
  (S)DDA: 40.52 mm
P. acnes NCTC 737 [2]; supplemented with salt (sodium chloride 100 mM) & lipid (Tween 80 1% v/v), 50 μg DOSS or 200 μg TCC per disc
  DDA: 0.00 mm
P. acnes NCTC 737 [2]; unsupplemented, 50 μg DOSS or 200 μg TCC per disc
  DDA: 11.81 mm
